Experimental data: PubChem BioAssay (NCI)
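Grown in 96-well plates, cells were treated for 48 hours with each compound at five concentrations. Insufficient inhibition: endpoint recorded as highest concentration tested. TGI is the concentration that stops growth completely.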

How the values were obtained:
Test in all cases: inhibition of tumour cell growth, NCI panel, 48 h
PC-3 prostate = system: PC-3 prostate
UACC-257 melanoma = system: UACC-257 melanoma
U251 CNS = system: U251 CNS
NCI-H460 lung = system: NCI-H460 lung
SNB-19 CNS = system: SNB-19 CNS
NCI-H226 lung = system: NCI-H226 lung
SF-539 CNS = system: SF-539 CNS
HT29 colon = system: HT29 colon
HOP-62 NSCLC = system: HOP-62 NSCLC
SNB-75 CNS = system: SNB-75 CNS
TK-10 renal = system: TK-10 renal
MDA-MB-231 breast = system: MDA-MB-231 breast
OVCAR-3 ovarian = system: OVCAR-3 ovarian
KM12 colon = system: KM12 colon
COLO 205 colon = system: COLO 205 colon
DU-145 prostate = system: DU-145 prostate
EKVX NSCLC = system: EKVX NSCLC
K-562 leukemia = system: K-562 leukemia
RXF 393 renal = system: RXF 393 renal
IGROV1 ovarian = system: IGROV1 ovarian
SF-268 CNS = system: SF-268 CNS
CAKI-1 renal = system: CAKI-1 renal
UACC-62 melanoma = system: UACC-62 melanoma
NCI-H23 lung = system: NCI-H23 lung
NCI-H522 lung = system: NCI-H522 lung
SK-MEL-28 melanoma = system: SK-MEL-28 melanoma
SR leukemia = system: SR leukemia
HS 578T breast = system: HS 578T breast
SF-295 CNS = system: SF-295 CNS
SK-MEL-2 melanoma = system: SK-MEL-2 melanoma
HCT-116 colon = system: HCT-116 colon
ACHN renal = system: ACHN renal
OVCAR-8 ovarian = system: OVCAR-8 ovarian
786-0 renal = system: 786-0 renal
MDA-MB-435 = system: MDA-MB-435
UO-31 renal = system: UO-31 renal
T-47D breast = system: T-47D breast
BT-549 breast = system: BT-549 breast
SW-620 colon = system: SW-620 colon
OVCAR-5 ovarian = system: OVCAR-5 ovarian
MOLT-4 leukemia = system: MOLT-4 leukemia
OVCAR-4 ovarian = system: OVCAR-4 ovarian
LOX IMVI melanoma = system: LOX IMVI melanoma
SK-MEL-5 melanoma = system: SK-MEL-5 melanoma
A498 renal = system: A498 renal
CCRF-CEM leukemia = system: CCRF-CEM leukemia
NCI/ADR-RES ovarian = system: NCI/ADR-RES ovarian
RPMI-8226 leukemia = system: RPMI-8226 leukemia
SK-OV-3 ovarian = system: SK-OV-3 ovarian
SN12C renal = system: SN12C renal
MDA-N = system: MDA-N
MALME-3M melanoma = system: MALME-3M melanoma
A549 NSCLC = system: A549 NSCLC
MCF7 breast = system: MCF7 breast
HOP-92 NSCLC = system: HOP-92 NSCLC
M14 melanoma = system: M14 melanoma
HCT-15 colon = system: HCT-15 colon
HL-60(TB) leukemia = system: HL-60(TB) leukemia
HCC-2998 colon = system: HCC-2998 colon

Measured: TGI

O=C(O)/C=C(/C(=O)O)C12CCN3CC4=CCOC5CC(=O)NC1C5C4CC32 (stereo unspecified)
not listed: HCC-2998 colon
> 100 µM: all other assays above

CS(=O)c1ncc2c(n1)-c1ccccc1OC2 (stereo unspecified)
not listed: A498 renal
> 100 µM: all other assays above
